# Test results reported in patent US5620676A, “Biologically active ATP analogs” (priority 1995, dated 1997).
# “Also recorded” adds a separate entry of the source.
# Molecular target: T1, P2X receptor (urinary bladder) (Cavia porcellus, UniProt A0A286XVA9)
# T1 construct: guinea pig isolated urinary bladder detrussor muscle; from tissue; host or cells: guinea pig isolated urinary bladder detrusor muscle
# Assay: Contraction of guinea pig isolated urinary bladder detrussor muscle
# Settings: for activity/potency in words, bladder: guinea pig urinary bladder
# Source text: Muscular relaxation/contraction: Relaxant responses mediated via P2Y receptors were examined in guinea pig taenia coli, rabbit aorta, and rabbit mesenteric artery, as described by Hoyle et al. (Br. J. Pharmacol., 107, 367-374 (1992a)), Burnstock et al., (Br. J. Pharmacol., 90, 383-391 (1987a)), and Rubino et al., (Eur. J. Pharmacol., 212, 237-240 (1992)). Contractile responses mediated via P2X receptors were examined in the guinea pig urinary bladder and vas deferens, and rabbit saphenous artery, also using standard methods (see Hoyle et al., supra., 1992; Hoyle et al., Br. J. Pharmacol., 99, 617-621 (1990); and Burnstock et al., Br. J. Pharmacol., 90, 111-120 (1987b)).
# In FIG. 14, the x-axis is also marked in units of the negative log of the molar concentration of applied putative P2Y receptor agonists and the y-axis is marked in units of the percentage relaxation of the 1 μM noradrenalin-induced contraction of rabbit aorta endothelium. In FIGS. 15-16, the x-axis is marked in units of the negative log of the molar concentration of applied putative p^2X receptor agonists and the y-axis is marked in units of the percentage contraction relative to a standard dose of KCl (i.e., 60 mM), as assessed in guinea pig isolated urinary bladder detrussor muscle (FIG. 15) and guinea pig isolated vas deferens (FIG. 16).
# T1 sequence (A0A286XVA9 entry or part of it): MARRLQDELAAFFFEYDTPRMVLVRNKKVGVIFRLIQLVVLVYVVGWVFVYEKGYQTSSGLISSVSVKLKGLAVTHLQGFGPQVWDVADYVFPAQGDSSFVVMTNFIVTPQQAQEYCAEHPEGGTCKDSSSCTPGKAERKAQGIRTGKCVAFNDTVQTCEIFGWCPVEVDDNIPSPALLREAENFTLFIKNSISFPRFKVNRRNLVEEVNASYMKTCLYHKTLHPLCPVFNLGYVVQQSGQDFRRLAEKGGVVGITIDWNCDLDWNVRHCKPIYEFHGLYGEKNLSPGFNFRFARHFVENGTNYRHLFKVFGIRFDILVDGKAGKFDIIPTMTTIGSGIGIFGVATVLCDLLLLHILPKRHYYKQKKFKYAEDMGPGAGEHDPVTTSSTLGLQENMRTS
compound,measurement,setting,value
"N#CCCCCCCSc1nc(N)c2ncn([C@@H]3O[C@H](COP(=O)(O)OP(=O)(O)OP(=O)(O)O)[C@@H](O)[C@H]3O)c2n1 [2-(6-Cyanohexylthio)-ATP, 2-(6-Cyanohexylthio)adenosine-5'-triphosphate]","activity/potency in words, bladder",,it produced tonic contractions rather than the phasic; also recorded: much less potent than ATP under the same conditions
same,"times more potent than ATP, bladder",guinea pig urinary bladder P2X receptors,approximately 100 times
same,"activity/potency in words, bladder",listed as 2-(6-cyanohexyl)thio ATP,produced tonic contractions rather than the typical phasic contractions of ATP
same,"activity/potency in words, bladder",listed as 2-(6-cyanohexyl)thio-ATP,"produced contractions that were less tonic, and with a lower potency than ATP under the same conditions"
same,"activity/potency in words, bladder",listed as 2-(6-cyanohexylthio)-ATP,potent agonists in the vas deferens and urinary bladder
